The values below come from US20250241109A1, “Electron Transporting Self-Assembling Monolayer Compound for Use in Optoelectronic and/or Photoelectrochemical Devices and Manufacture Thereof” (Kaunas University of Technology, priority 2024, published 2025).

Like-named read-outs stand apart in the source and are kept apart here.

What all share (type): physicochemical
Data set [1] can be described thus: Contact potential difference (CPD) surface mapping on ITO. An excerpt: The surface mapping of contact potential difference (CPD) values of V1264 on ITO confirmed uniformity of SAM coverage. The rather homogenous pattern was proportional to the narrow work function (WF) fluctuation in a specific area (˜4.45 eV), overall indicating a good V1264 coverage on ITO.

Data set [2] is described as follows: Water contact angle of ITO/SAM surface. To be noted: coated onto ITO, washed to remove unbound molecules. An excerpt: It is noted that all the samples were washed with respective solvents to remove unbounded SAM molecules from the ITO substrate. […] The higher hydrophobicity of ITO/SAM substrate will affect the crystallization and morphology of perovskite film.^[21,22] The more hydrophobic surface (less wetting) of ITO/NDI-SAM surface can suppress the dragging force of perovskite inks, resulting in larger grain-size perovskite crystals, as indicated from top-view scanning electron microscopy (SEM) images in FIG. 6a,b.^[21,22] In addition, the tertbutyl groups of V1264 on the upper side can interact well with the perovskite layer, resulting in less pinholes or voids formed at ITO/V1264/perovskite interface, see FIG. 7.

Data set [3] can be described thus: Cyclic voltammetry and optical band gap: energy levels in DMF and DCM solution. To be noted: for EHOMO: EHOMO=ELUMO+Eg opt; for ELUMO: calculated from E vs Fc/Fc^+ with conversion factors; for λ: edge of electronic absorption spectrum in solution; for E vs Fc/Fc^+: glassy carbon electrode, 0.1 M tetrabutylammonium hexafluorophosphate, calibrated with ferrocene; for Eg^opt-sol: optical band gap, Eg opt=1240/λ. The protocol: CV measurements were carried out by a three-electrode assembly cell from Bio-Logic SP-150. The measurements were carried out at a glassy carbon electrode in DMF and DCM solutions containing 0.1 M tetrabutylammonium hexafluorophosphate as an electrolyte, Pt as the counter electrode and as the reference electrode. Each measurement was calibrated with ferrocene (Fc) and potentials calculated to Fc^+/Fc. Conversion factors: ferrocene in DCM vs SCE 0.46, DMF vs SCE 0.45, SCE vs SHE: 0.244, SHE vs vacuum: 4.43 (N. G. Connelly, W. E. Geiger, Chemical Reviews 1996, 96, 877; V. V. Pavlishchuk, A. W. Addison, Inorganica Chimica Acta 2000, 298, 97). The half-wave potential E1/2vs Fc was obtained as an average value between maxima of cathodic and anodic potentials: E1/2 vs Fc=1/2([…]). The optical band gaps Eg opt=1240/λ was estimated from the edges of electronic absorption spectra in DCM and DMF solutions. ELUMO was calculated from the equation ELUMO=(E vs Fc/Fc^++(solvent vs SCE)+0.244+4.43. EHOMO calculated from the equation EHOMO=ELUMO[…].

The nature of data set [4]: UV/vis absorption and transmittance spectra. The text has this:
In the n-i-p structure PSC light first posses through the ETL, thus it is important to minimize parasitic absorption of this layer.

Data set [5] in a line: Thermogravimetric analysis (TGA). As to conditions: scan rate 10 K min^−1, nitrogen atmosphere. The protocol: TGA was performed on a Q50 thermogravimetric analyzer (TA Instruments) at a scan rate of 10 K min^−1 in the nitrogen atmosphere.
A short description of data set [6]: Solubility in organic solvents.
The mark [7] stands for this setting: CHCl3, organic solvent or mixture, read-out: Solubility in CHCl3.
The mark [8] stands for this setting: DCM, organic solvent or mixture, read-out: Solubility in DCM.
The mark [9] stands for this setting: THF, organic solvent or mixture, read-out: Solubility in THF.
Setting [10] is: organic solvent or mixture, methanol, sonicated, read-out: Solubility in Methanol.

`CC(C)(C)c1ccc(C(C)(C)C)c(N2C(=O)c3ccc4c5c(ccc(c35)C2=O)C(=O)N(CP(=O)(O)O)C4=O)c1` [Compound V1264, N-(2,5-di-tert-butyl-phenyl)-N′-(methyl)-1,4,5,8-naphthalene tetracarboxylic diimide phosphonic acid]: the “Work function (WF)” value in data set [1] is roughly 4.45 eV. For the same compound, the “Water contact angle (surface hydrophobicity)” value in data set [2] is “around 78.4 °”. Besides, in data set [3], the EHOMO is −6.97 eV, the ELUMO is on record as −3.81 eV, the λ is 392 nm and the “E vs Fc/Fc^+” value is given as −1.34 V. Besides, the “Eg^opt-sol” value in data set [3] is 3.16 eV. The “Voltammogram behaviour in solution” value in data set [3] (during the scans) is “reversible reduction waves”. Also, in data set [4] (UV/vis, 10^−4 M anhydrous dichloromethane), the “Absorption in the visible region” value is given as “no apparent absorption in the visible region”. The “Optical losses (UV-Vis transmittance) of SAM on ITO surface” value in data set [4] (compared to bare ITO and ITO/SnO2 films) is “neglectable optical losses”. For the same compound, the “95% weight loss temperature” value in data set [5] was found to be 356 °C. Besides, the solubility in data set [6] (setting [7]) is no more than 7500 µg/mL. Further, in data set [6] (setting [8]), the solubility is no more than 15000 µg/mL. Moreover, the solubility in data set [6] (setting [9]) is no more than 6500 µg/mL. In addition, the solubility in data set [6] (chlorobenzene, organic solvent or mixture, read-out: Solubility in Chlorobenzene) was no more than 13000 µg/mL. The solubility in data set [6] (toluene, organic solvent or mixture, read-out: Solubility in Toluene) is no more than 800 µg/mL.
`O=C1c2cc(Br)c3c4c(cc(Br)c(c24)C(=O)N1CP(=O)(O)O)C(=O)N(CP(=O)(O)O)C3=O` [Compound V1486]: in data set [3], the EHOMO is on record as −6.76 eV, the ELUMO is on record as −3.86 eV, the λ is 426 nm and the “E vs Fc/Fc^+” value was −1.26 V. Moreover, in data set [3], the “Eg^opt-sol” value stood at 2.90 eV. In data set [6] (organic solvent or mixture, THF, sonicated, read-out: Solubility in THF), the solubility was no more than 500 µg/mL. Also, in data set [6] (organic solvent or mixture, isopropanol, sonicated, read-out: Solubility in Isopropanol), the solubility was no more than 500 µg/mL. Besides, the solubility in data set [6] (setting [10]) is no more than 700 µg/mL.
For `O=C1c2ccc3c4c(ccc(c24)C(=O)N1CP(=O)(O)O)C(=O)N(CP(=O)(O)O)C3=O` [Compound V1612, N, N′-bi(methyl)-1,4,5,8-naphthalene tetracarboxylic diimide diphosphonic acid], in data set [3], the EHOMO was −6.97 eV, the ELUMO is recorded as −3.9 eV, the λ was 403 nm and the “E vs Fc/Fc^+” value is given as −1.17 V. Also, in data set [3], the “Eg^opt-sol” value is reported as 3.07 eV. Besides, the solubility in data set [6] (setting [10]) was no more than 500 µg/mL.
With `CC(C)(C)c1ccc(C(C)(C)C)c(N2C(=O)c3ccc4c5c(ccc(c35)C2=O)C(=O)N(CCP(=O)(O)O)C4=O)c1` [Compound V1624, N-(2,5-di-tert-butyl-phenyl)-N′-(ethyl)-1,4,5,8-naphthalene tetracarboxylic diimide phosphonic acid], in data set [3], the EHOMO was −7.11 eV, the ELUMO is −3.96 eV, the λ was determined as 393 nm and the “E vs Fc/Fc^+” value is given as −1.16 V. For the same compound, the “Eg^opt-sol” value in data set [3] is listed as 3.15 eV. Also, the solubility in data set [6] (setting [7]) is no more than 5000 µg/mL. Moreover, in data set [6] (setting [8]), the solubility is no more than 7000 µg/mL. Besides, in data set [6] (setting [9]), the solubility was no more than 1000 µg/mL.
Regarding `O=C1c2ccc3c4c(ccc(c24)C(=O)N1CCP(=O)(O)O)C(=O)N(CCP(=O)(O)O)C3=O` [Compound V1625, N, N′-bis(ethyl)-1,4,5,8-naphthalene tetracarboxylic diimide diphosphonic acid], in data set [3], the EHOMO was −6.91 eV, the ELUMO is −3.79 eV, the λ amounted to 397 nm and the “E vs Fc/Fc^+” value was −1.32 V. Further, the “Eg^opt-sol” value in data set [3] stood at 3.12 eV. For the same compound, the solubility in data set [6] (setting [10]) is no more than 500 µg/mL.
Regarding `CC(C)(C)c1ccc(C(C)(C)C)c(N2C(=O)c3ccc4c5c(ccc(c35)C2=O)C(=O)N(c2ccc(P(=O)(O)O)cc2)C4=O)c1` [Compound V1635], in data set [3], the EHOMO is listed as −6.98 eV, the ELUMO is −3.84 eV, the λ is reported as 394 nm and the “E vs Fc/Fc^+” value was −1.28 V. Further, in data set [3], the “Eg^opt-sol” value came to 3.14 eV. Besides, the solubility in data set [6] (setting [7]) is no more than 15000 µg/mL. The solubility in data set [6] (setting [8]) was no more than 10000 µg/mL.

The term solubility denotes the concentration that dissolves in the medium under given conditions.
